Assay results as given in ChEMBL document CHEMBL1122002, “Crystal structures and pharmacological activity of calcium channel antagonists: 2,6-dimethyl-3,5-dicarbomethoxy-4-(unsubstituted, 2-methyl-, 4-methyl-, 3-nitro-, 4-nitro-, and 2,4-dinitrophenyl)-1,4-dihydropyridine” (J Med Chem, 1982).

What was measured:
[1] = species: Cavia porcellus; test: Inhibition of muscarinic receptor mediated [Ca2+] dependent contraction of guinea pig ileal longitudinal smooth muscle; type: functional
[2] = target: Voltage-gated L-type calcium channel (Homo sapiens, UniProt Q13936+Q13698+Q01668+O60840); test: Calcium channel antagonistic activity relative to 2,6-Dimethyl-4-(2-nitro-phenyl)-1,4-dihydro-pyridine-3,5-dicarboxylic acid dimethyl ester(=100); type: functional, Cavia porcellus; details: guinea pig

| SMILES | ID50 [1] [nM] | Relative activity [2] |
| --- | --- | --- |
| CCOC(=O)C1=C(C)NC(C)=C(C(=O)OCC)C1c1ccccc1 | 30 | ~ 18 |
| COC(=O)C1=C(C)NC(C)=C(C(=O)OC)C1c1ccc(N(C)C)cc1 | 50000 | 0.005 |
| COC(=O)C1=C(C)NC(C)=C(C(=O)OC)C1c1ccccc1 | 28 | 18 |
| COC(=O)C1=C(C)N=C(C)/C(=C(\O)OC)C1c1cccc(C)c1 (configuration not stated) | 110 | 4.6 |
| COC(=O)C1=C(C)N=C(C)/C(=C(\O)OC)C1c1c(F)c(F)c(F)c(F)c1F (configuration not stated) | 0.9 |  |
| COC(=O)C1=C(C)N=C(C)/C(=C(\O)OC)C1c1cccc(C#N)c1 (configuration not stated) | 300 | 1.7 |
| COC(=O)C1=C(C)N=C(C)/C(=C(\O)OC)C1c1ccc(C)cc1 (configuration not stated) | 50000 | < 0.05 |
| COC(=O)C1=C(C)N=C(C)/C(=C(\O)OC)C1c1ccc([N+](=O)[O-])cc1[N+](=O)[O-] (configuration not stated) | >50000 | < 0.05 |
| COC(=O)C1=C(C)NC(C)=C(C(=O)OC)C1c1ccccc1[N+](=O)[O-] [NIFEDIPINE] | 5.1 | 100 |
